Measured values reported in PubChem BioAssay AID248 (DTP/NCI, 2004).
Where “and” joins values, the source holds several entries; their conditions need not be identical. Equal values may be shown once. Inconclusive results and toxic doses are left out. Cut-off read from the data, not from the text of the source: active = T/C of 150% or more; inactive = T/C below 125%. Peptide text beside a SMILES is read from it. * marks the point of attachment. Cbz = O=C(OCc1ccccc1)*

System: L1210 leukemia ip in BDF1 mice, survival T/C
Assay: NCI In Vivo Anticancer Drug Screen. Data for tumor model L1210 Leukemia (intraperitoneal) in B6D2F1 (BDF1) mice
Settings: endpoint: mean survival time, higher = longer survival
Summary of the method: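 Each compound was tested against a transplantable tumor grown in mice. The endpoint was survival, with treated animals benchmarked against vehicle controls as a simple ratio.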

[1] = dose: 100.0 mg/kg/injection, schedule: Q04DX002 (ip), vehicle: saline
[2] = dose: 200.0 mg/kg/injection, schedule: Q04DX002 (ip), vehicle: saline
[3] = dose: 400.0 mg/kg/injection, schedule: Q04DX002 (ip), vehicle: saline
[4] = dose: 100.0 mg/kg/injection, schedule: Q01DX009 (ip), vehicle: Klucel (hydroxypropylcellulose) (HPC)
[5] = dose: 100.0 mg/kg/injection, schedule: Q04DX003 (ip), vehicle: Klucel (hydroxypropylcellulose) (HPC)
[6] = dose: 200.0 mg/kg/injection, schedule: Q01DX009 (ip), vehicle: Klucel (hydroxypropylcellulose) (HPC)
[7] = dose: 200.0 mg/kg/injection, schedule: Q04DX003 (ip), vehicle: Klucel (hydroxypropylcellulose) (HPC)
[8] = dose: 400.0 mg/kg/injection, schedule: Q04DX003 (ip), vehicle: Klucel (hydroxypropylcellulose) (HPC)
[9] = dose: 400.0 mg/kg/injection, schedule: Q01DX009 (ip), vehicle: Klucel (hydroxypropylcellulose) (HPC)
[10] = dose: 100.0 mg/kg/injection, schedule: Q04DX003 (ip), vehicle: saline with Tween-80
[11] = dose: 200.0 mg/kg/injection, schedule: Q04DX003 (ip), vehicle: saline with Tween-80
[12] = dose: 400.0 mg/kg/injection, schedule: Q04DX003 (ip), vehicle: saline with Tween-80
[13] = dose: 100.0 mg/kg/injection, schedule: Q01DX001 (ip), vehicle: saline

Measured: T/C

CCCCN(C)N=Nc1ccc(C(=N)N)cc1
inactive: dose: 5.0 mg/kg/injection, schedule: Q01DX001 (ip), vehicle: carboxymethylcellulose (CMC) 106 % of control | dose: 10.0 mg/kg/injection, schedule: Q01DX001 (ip), vehicle: carboxymethylcellulose (CMC) 100 % of control | dose: 20.0 mg/kg/injection, schedule: Q01DX001 (ip), vehicle: carboxymethylcellulose (CMC) 100 % of control | dose: 40.0 mg/kg/injection, schedule: Q01DX001 (ip), vehicle: carboxymethylcellulose (CMC) 95 % of control | dose: 80.0 mg/kg/injection, schedule: Q01DX001 (ip), vehicle: carboxymethylcellulose (CMC) 101 % of control

O=C(Nc1ccc(Br)cc1)Nc1cccc(Cl)c1
inactive: [1] 103 % of control | [2] 103 % of control | [3] 96 % of control

N=C(N)/C(N)=N\C1=NCCN1
inactive: [4] 101 % of control | [5] 95 % of control | dose: 178.0 mg/kg/injection, schedule: Q04DX003 (ip), vehicle: Klucel (hydroxypropylcellulose) (HPC) 97 % of control | [6] 101 % of control | [7] 93 % of control | dose: 266.0 mg/kg/injection, schedule: Q04DX003 (ip), vehicle: Klucel (hydroxypropylcellulose) (HPC) 92 % of control | [8] 90 % of control and 92 % of control | dose: 600.0 mg/kg/injection, schedule: Q04DX003 (ip), vehicle: Klucel (hydroxypropylcellulose) (HPC) 93 % of control

CCC(CC)(COC(N)=O)COC(N)=O
inactive: dose: 25.0 mg/kg/injection, schedule: Q04DX003 (ip), vehicle: Klucel (hydroxypropylcellulose) (HPC) 98 % of control | dose: 50.0 mg/kg/injection, schedule: Q04DX003 (ip), vehicle: Klucel (hydroxypropylcellulose) (HPC) 93 % of control | [5] 98 % of control | [7] 95 % of control | [8] 93 % of control

CC(Cc1ccccc1)NCCCCl (stereo unspecified)
inactive: dose: 15.0 mg/kg/injection, schedule: Q01DX001 (ip), vehicle: carboxymethylcellulose (CMC) 89 % of control | dose: 30.0 mg/kg/injection, schedule: Q01DX001 (ip), vehicle: carboxymethylcellulose (CMC) 95 % of control | dose: 60.0 mg/kg/injection, schedule: Q01DX001 (ip), vehicle: carboxymethylcellulose (CMC) 93 % of control

CN(CCC#N)C(=O)Nc1ccc(Cl)c(Cl)c1
inactive: dose: 100.0 mg/kg/injection, schedule: Q04DX002 (ip), vehicle: other 109 % of control | dose: 200.0 mg/kg/injection, schedule: Q04DX002 (ip), vehicle: other 102 % of control | dose: 400.0 mg/kg/injection, schedule: Q04DX002 (ip), vehicle: other 102 % of control

Nc1c(Br)cc(O)c2c1C(=O)c1ccccc1C2=O
inactive: [4] 88 % of control | [5] 100 % of control | [6] 90 % of control | [7] 100 % of control | [9] 90 % of control | [8] 96 % of control

CCCCCCOC(=O)CCCc1ccc(N(CCCl)CCCl)cc1
inactive: [1] 114 % of control | [2] 111 % of control | [3] 124 % of control

C/C=C\c1ccc(OC(=O)Nc2ccc(C(=O)OCC)cc2)c(OC)c1
inactive: [4] 94 % of control | [6] 94 % of control | [9] 89 % of control

CN(C)c1ccc(/C=N/NC(=O)c2cnc3ccccc3c2)cc1
inactive: dose: 100.0 mg/kg/injection, schedule: Q04DX002 (ip), vehicle: saline with Tween-80 102 % of control | dose: 200.0 mg/kg/injection, schedule: Q04DX002 (ip), vehicle: saline with Tween-80 97 % of control | dose: 400.0 mg/kg/injection, schedule: Q04DX002 (ip), vehicle: saline with Tween-80 94 % of control

COC(=O)C(NC(=O)C1CCCN1C(=O)OCc1ccccc1)C(C)C (stereo not drawn) (Cbz-Pro-Val-OMe; configuration not given here)
inactive: dose: 25.0 mg/kg/injection, schedule: Q04DX003 (ip), vehicle: saline with Tween-80 95 % of control | dose: 50.0 mg/kg/injection, schedule: Q04DX003 (ip), vehicle: saline with Tween-80 95 % of control | [10] 106 % of control | [11] 95 % of control | [12] 94 % of control

N=C(N)SCC(CSC(=N)N)c1cnnc2ccccc12 (stereo unspecified)
inactive: [13] 102 % of control

c1ccc([P+](c2ccccc2)(c2ccccc2)C2CC2)cc1
inactive: dose: 5.0 mg/kg/injection, schedule: Q01DX001 (ip), vehicle: saline 93 % of control | dose: 10.0 mg/kg/injection, schedule: Q01DX001 (ip), vehicle: saline 101 % of control | dose: 20.0 mg/kg/injection, schedule: Q01DX001 (ip), vehicle: saline 104 % of control | dose: 40.0 mg/kg/injection, schedule: Q01DX001 (ip), vehicle: saline 104 % of control

O=C(Nc1ccccc1)Oc1ccc(Br)cc1Br
inactive: dose: 75.0 mg/kg/injection, schedule: Q01DX001 (ip), vehicle: saline 94 % of control | dose: 150.0 mg/kg/injection, schedule: Q01DX001 (ip), vehicle: saline 89 % of control | dose: 300.0 mg/kg/injection, schedule: Q01DX001 (ip), vehicle: saline 94 % of control

CN(C)CCC1(c2ccccc2)C=Cc2ccccc21 (stereo unspecified)
inactive: dose: 3.12 mg/kg/injection, schedule: Q01DX009 (ip), vehicle: saline 93 % of control | dose: 6.25 mg/kg/injection, schedule: Q01DX009 (ip), vehicle: saline 97 % of control | dose: 12.5 mg/kg/injection, schedule: Q01DX009 (ip), vehicle: saline 101 % of control | dose: 25.0 mg/kg/injection, schedule: Q01DX009 (ip), vehicle: saline 100 % of control | dose: 50.0 mg/kg/injection, schedule: Q01DX009 (ip), vehicle: saline 95 % of control

O=C(O)CC1CCC(CC(=O)O)CC1 (stereo unspecified)
inactive: [10] 92 % of control | [11] 89 % of control | [12] 94 % of control

NC(=O)NC(NC(N)=O)C(Cl)(Cl)Cl
inactive: dose: 100.0 mg/kg/injection, schedule: Q01DX009 (ip), vehicle: saline 101 % of control | [10] 100 % of control | dose: 200.0 mg/kg/injection, schedule: Q01DX009 (ip), vehicle: saline 102 % of control | [11] 100 % of control | dose: 400.0 mg/kg/injection, schedule: Q01DX009 (ip), vehicle: saline 102 % of control | [12] 100 % of control

CCNNC
inactive: dose: 12.5 mg/kg/injection, schedule: Q04DX003 (ip), vehicle: saline 104 % of control | dose: 25.0 mg/kg/injection, schedule: Q04DX003 (ip), vehicle: saline 103 % of control | dose: 50.0 mg/kg/injection, schedule: Q04DX003 (ip), vehicle: saline 101 % of control | dose: 100.0 mg/kg/injection, schedule: Q04DX003 (ip), vehicle: saline 111 % of control | dose: 200.0 mg/kg/injection, schedule: Q04DX003 (ip), vehicle: saline 108 % of control

COc1ccc2[nH]c3c(C)c4c(c(C)c3c2c1)CN(C)CC4
inactive: dose: 29.0 mg/kg/injection, schedule: Q01DX Z (ip), vehicle: saline 96 % of control | dose: 44.0 mg/kg/injection, schedule: Q01DX Z (ip), vehicle: saline 98 % of control | dose: 66.0 mg/kg/injection, schedule: Q01DX Z (ip), vehicle: saline 102 % of control | [13] 105 % of control | dose: 100.0 mg/kg/injection, schedule: Q01DX Z (ip), vehicle: saline 98 % of control | dose: 150.0 mg/kg/injection, schedule: Q01DX Z (ip), vehicle: saline 100 % of control | dose: 200.0 mg/kg/injection, schedule: Q01DX001 (ip), vehicle: saline 100 % of control | dose: 400.0 mg/kg/injection, schedule: Q01DX001 (ip), vehicle: saline 102 % of control

Cc1cccc(OCC(O)CN2CCN(c3ccccc3)CC2)c1 (stereo unspecified)
inactive: dose: 50.0 mg/kg/injection, schedule: Q01DX009 (ip), vehicle: Klucel (hydroxypropylcellulose) (HPC) 104 % of control | [4] 101 % of control | [6] 115 % of control

Cc1ccc(Cl)cc1NC(=O)Nc1ccc(C)c(NC(=O)Nc2cc(Cl)ccc2C)c1
inactive: dose: 100.0 mg/kg/injection, schedule: Q01DX009 (ip), vehicle: saline with Tween-80 87 % of control | [10] 88 % of control | dose: 200.0 mg/kg/injection, schedule: Q01DX009 (ip), vehicle: saline with Tween-80 92 % of control | [11] 86 % of control | dose: 400.0 mg/kg/injection, schedule: Q01DX009 (ip), vehicle: saline with Tween-80 98 % of control | [12] 90 % of control

NC(=O)c1cccc([N+](=O)[O-])c1
inactive: [10] 101 % of control | [11] 95 % of control | [12] 93 % of control

CC(=O)n1c(N)nc2ccccc21
inactive: [4] 103 % of control | [6] 102 % of control
